The structures appear in SMILES notation.

This assay relates to mutant (Q111) Htt. Nature of the assay: Newly synthesized Htt transcripts, 4sU metabolic labeling, Q111 cells. It is filed as cell-based, mouse. The following applies: 4sU for 2 hours. As for the experimental part:
Metabolic labeling of newly synthesized RNA with 4-thiouridine (4sU)—STHdh Q111 and STHdh Q7 cells (collected from 10 cm dishes) were treated for 30 minutes with DMSO (vehicle control) or the tested SPI compound (e.g., SPJ-21). Following, 4-thiouridine (4sU, 150 μM final concentration) was added for additional 2 hours. The labeling was terminated by removing the 4sU-containing medium and washing the cells 3 times with phosphate-buffered saline (PBS). Total RNA was extracted as described above. […]
Huntington's disease (HD) is an inherited genetic disorder caused by expansion trinucleotide CAG repeats (36 and higher) encoding glutamine (Q) in the huntingtin (Htt) gene. […] The two cell lines were treated for 48 hours with the identified SPIs and following the levels of Htt mRNA were determined. […] Moreover, the levels measured from the second exon relative to the first were fairly higher in Q7 compared to Q111 and this small difference was kept all along the gene. […]
In assays conducted for showing that the selective effect on mutant Htt is at the transcription level, the cells were metabolically labeled with 4-thio-uridine (4sU) for 2 hours in the presence of DMSO of the indicated SPI analogs. […] Newly synthesized Htt transcript levels were determined by RT-qPCR.

On to `COc1ccc(C=CC(=O)c2cc(O)ccc2O)cc1` [SPI-21], for which the “levels of newly synthesized Q111 Htt” value was “diminished”.

Values taken from patent US12661353B2, “SPT5 inhibitors and uses thereof” (Yeda Research and Development Co. Ltd., priority 2020, dated 2026).
